One data set concerns the target T1, PLK1 (Homo sapiens, UniProt P53350).
T1 construct: endogenous in cells; host or cells: HeLa cells stably expressing LgBit, with CRISPR/Cas9 knock-in of HiBit at the endogenous PLK1 locus
Briefly: Luciferase assay for PLK1 in HeLa LgBit (Plk1-HiBit KI) cell line. Format: cell-based. The conditions noted are these: 300 nM compound, luminescence after 9 hours. Put shortly: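 HeLa LgBit cells with endogenous Plk1 C-terminally HiBiT-tagged by CRISPR knock-in were synchronized by 2 mM thymidine block for 24 h, then released and seeded. After 18 h, Endurazine was added and compounds were dosed at 300 nM. Luminescence was tracked in real time; activity is the ratio to DMSO.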

The next data set concerns H526 cell line. Briefly: Cell viability assay for H526 cell line. Type of data set: cell-based. The conditions noted are these: Homo sapiens, NCI-H526, 120 h; H526 cells, 5 days, EZ-Cytox, 0.46-3000 nM. In a few lines: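 NCI-H526 cells exposed to compounds for 5 days in a CO2 incubator; viability read as absorbance at 450 nm after 3 min plate shaking; IC50 derived from treatment response.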

The subject of another data set is MRC-5 cell line. Kind of data set: Cell viability assay for MRC-5 cell line. The conditions noted are these: for IC50: Homo sapiens, MRC5, 120 h, read-out: Activity: IC50 value (nM) to MRC-5 cell line.
Data set [1] is described as follows: Cell viability assay for MRC-5 cell line. Particulars: human.

T1 sequence (P53350 whole entry): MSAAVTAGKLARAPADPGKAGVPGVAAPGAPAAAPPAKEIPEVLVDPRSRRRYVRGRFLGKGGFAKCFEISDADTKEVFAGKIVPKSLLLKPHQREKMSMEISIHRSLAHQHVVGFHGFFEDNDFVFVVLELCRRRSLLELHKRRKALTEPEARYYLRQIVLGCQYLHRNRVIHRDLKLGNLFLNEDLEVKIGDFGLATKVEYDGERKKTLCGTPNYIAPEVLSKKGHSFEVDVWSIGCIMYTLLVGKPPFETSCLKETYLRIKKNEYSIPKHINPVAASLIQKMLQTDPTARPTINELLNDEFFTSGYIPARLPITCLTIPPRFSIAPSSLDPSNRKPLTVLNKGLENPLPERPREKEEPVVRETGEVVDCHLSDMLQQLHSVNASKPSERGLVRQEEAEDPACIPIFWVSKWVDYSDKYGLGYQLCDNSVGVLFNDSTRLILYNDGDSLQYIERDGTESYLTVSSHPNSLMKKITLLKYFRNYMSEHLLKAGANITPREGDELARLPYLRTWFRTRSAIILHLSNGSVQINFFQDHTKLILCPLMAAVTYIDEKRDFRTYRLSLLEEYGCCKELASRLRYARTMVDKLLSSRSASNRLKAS

For `COc1cc(C(=O)NC2CCC(N(C)CC3CCN(c4ccc(C5CCC(=O)NC5=O)cc4F)CC3)CC2)ccc1Nc1ncc2c(n1)N(C(C)C)CC(F)(F)C(=O)N2C` (stereo not shown) [Compound 7, 4-((7,7-difluoro-9-isopropyl-5-methyl-6-oxo-6,7,8,9-tetrahydro-5H-pyrimido[4,5-b][1,4]diazepin-2-yl)amino)-N-((1r,4r)-4-(((1-(4-(2,6-dioxopiperidin-3-yl)-2-fluorophenyl)piperidin-4-yl)methyl)(methyl)amino)cyclohexyl)-3-methoxybenzamide], the “Activity: ratio of the luminescence value of each Exemplary Compound treatment group to DMSO treatment group” value (“Activity: ratio” below) at PLK1 is “+++ (+++: <0.3)”. The IC50 in the data set with H526 cell line is less than 0.03 µM; in the data set on MRC-5 cell line, 13000 nM.
Regarding `COc1cc(C(=O)NC2CC3(CCN(CC4CCN(c5ccc(C6CCC(=O)NC6=O)cc5F)CC4)CC3)C2)c(F)cc1Nc1ncc2c(n1)N(C(C)C)CC(F)(F)C(=O)N2C` (stereo not shown) [Compound 14, 4-((7,7-difluoro-9-isopropyl-5-methyl-6-oxo-6,7,8,9-tetrahydro-5H-pyrimido[4,5-b][1,4]diazepin-2-yl)amino)-N-(7-((1-(4-(2,6-dioxopiperidin-3-yl)-2-fluorophenyl)piperidin-4-yl)methyl)-7-azaspiro[3.5]nonan-2-yl)-2-fluoro-5-methoxybenzamide], at PLK1, the “Activity: ratio” value is reported as “++ (++ <0.6)”. The IC50 with H526 cell line was less than 0.05 µM; in the data set on MRC-5 cell line it was 14700 nM.
With `COc1cc(C(=O)NC2CC3(CCN(CC4CCN(c5ccc(C6CCC(=O)NC6=O)cc5)CC4)CC3)C2)ccc1Nc1ncc2c(n1)N(C(C)C)CC(F)(F)C(=O)N2C` (stereo not shown) [Compound 19, 4-((7,7-difluoro-9-isopropyl-5-methyl-6-oxo-6,7,8,9-tetrahydro-5H-pyrimido[4,5-b][1,4]diazepin-2-yl)amino)-N-(7-((1-(4-(2,6-dioxopiperidin-3-yl)phenyl)piperidin-4-yl)methyl)-7-azaspiro[3.5]nonan-2-yl)-3-methoxybenzamide], on PLK1, the “Activity: ratio” value is listed as “++ (++ <0.6)”. Besides, the IC50 with H526 cell line is less than 0.03 µM; with MRC-5 cell line it was 13100 nM.
`CC[C@@H]1C(=O)N(C)c2cnc(Nc3ccc(C(=O)NCCOCCOCCNc4cccc5c4C(=O)N(C4CCC(=O)NC4=O)C5=O)cc3OC)nc2N1C1CCCC1` (stereo partly shown) [Comparative Compound 1, reference compound]: the “cytotoxicity in normal cell line (in words)” value in the data set with MRC-5 cell line (MRC-5 cell line) was “high level of cytotoxicity in normal cell line”.
Turning to `Cc1cc(C(=O)NC2CC3(CCN(CC4CCN(c5ccc(C6CCC(=O)NC6=O)cc5F)CC4)CC3)C2)c(F)cc1Nc1ncc2c(n1)N(C(C)C)CC(F)(F)C(=O)N2C` (stereo not shown) [Compound 21, 4-((7,7-difluoro-9-isopropyl-5-methyl-6-oxo-6,7,8,9-tetrahydro-5H-pyrimido[4,5-b][1,4]diazepin-2-yl)amino)-N-(7-((1-(4-(2,6-dioxopiperidin-3-yl)-2-fluorophenyl)piperidin-4-yl)methyl)-7-azaspiro[3.5]nonan-2-yl)-2-fluoro-5-methylbenzamide], on PLK1, the “Activity: ratio” value was “++ (++ <0.6)”. Also, the IC50 in the data set on H526 cell line was less than 0.05 µM; in the data set on MRC-5 cell line, 12600 nM.
`COc1cc(C(=O)N[C@H]2CC[C@H](N(C)CCN3CCN(c4ccc(C5CCC(=O)NC5=O)cc4F)CC3)CC2)ccc1Nc1ncc2c(n1)N(C(C)C)CC(F)(F)C(=O)N2C` (stereo partly shown) [Compound 9, 4-((7,7-difluoro-9-isopropyl-5-methyl-6-oxo-6,7,8,9-tetrahydro-5H-pyrimido[4,5-b][1,4]diazepin-2-yl)amino)-N-((1r,4r)-4-((2-(4-(4-(2,6-dioxopiperidin-3-yl)-2-fluorophenyl)piperazin-1-yl)ethyl)(methyl)amino)cyclohexyl)-3-methoxybenzamide]: the “Activity: ratio” value on PLK1 was “++ (++ <0.6)”. Besides, the half-maximal inhibitory concentration (IC50) is less than 0.05 µM with H526 cell line and 16600 nM in the data set with MRC-5 cell line.
Consider `COc1cc(C(=O)NC2CCN(CC3CN(c4ccc(C5CCC(=O)NC5=O)cc4F)C3)CC2)ccc1Nc1ncc2c(n1)N(C(C)C)CC(F)(F)C(=O)N2C` (stereo not shown) [Compound 12, 4-((7,7-difluoro-9-isopropyl-5-methyl-6-oxo-6,7,8,9-tetrahydro-5H-pyrimido[4,5-b][1,4]diazepin-2-yl)amino)-N-(1-((1-(4-(2,6-dioxopiperidin-3-yl)-2-fluorophenyl)azetidin-3-yl)methyl)piperidin-4-yl)-3-methoxybenzamide], for which the “Activity: ratio” value on PLK1 is “++ (++ <0.6)”. Besides, the IC50 is less than 0.05 µM in the data set on H526 cell line and 24600 nM with MRC-5 cell line.
For the compound `COc1cc(C(=O)NN2CCC(CN3CCN(c4ccc(C5CCC(=O)NC5=O)cc4F)CC3)C(F)(F)C2)ccc1Nc1ncc2c(n1)N(C(C)C)CC(F)(F)C(=O)N2C` (stereo not shown) [Compound 16, 4-((7,7-difluoro-9-isopropyl-5-methyl-6-oxo-6,7,8,9-tetrahydro-5H-pyrimido[4,5-b][1,4]diazepin-2-yl)amino)-N-(4-((4-(4-(2,6-dioxopiperidin-3-yl)-2-fluorophenyl)piperazin-1-yl)methyl)-3,3-difluoropiperidin-1-yl)-3-methoxybenzamide], the “Activity: ratio” value at PLK1 was “++ (++ <0.6)”. Moreover, in the data set on H526 cell line, the IC50 was less than 0.1 µM. In addition, the IC50 at 5 days in data set [1] (MRC-5 cells (normal cell line)) was greater than 10 µM.
For the compound `COc1cc(C(=O)N[C@H]2CC[C@H](N(C)CCN3CCN(c4c(F)cc(C5CCC(=O)NC5=O)cc4F)CC3)CC2)ccc1Nc1ncc2c(n1)N(C(C)C)CC(F)(F)C(=O)N2C` (stereo partly shown) [Compound 10, 4-((7,7-difluoro-9-isopropyl-5-methyl-6-oxo-6,7,8,9-tetrahydro-5H-pyrimido[4,5-b][1,4]diazepin-2-yl)amino)-N-((1r,4r)-4-((2-(4-(4-(2,6-dioxopiperidin-3-yl)-2,6-difluorophenyl)piperazin-1-yl)ethyl)(methyl)amino)cyclohexyl)-3-methoxybenzamide], the “Activity: ratio” value at PLK1 is on record as “++ (++ <0.6)”. In addition, the IC50 is less than 0.05 µM in the data set on H526 cell line and 15600 nM with MRC-5 cell line.
`COc1cc(C(=O)NC2CC3(CCN(CC4CCN(c5ccc(C6CCC(=O)NC6=O)cc5C)CC4)CC3)C2)ccc1Nc1ncc2c(n1)N(C(C)C)CC(F)(F)C(=O)N2C` (stereo not shown) [Compound 35, 4-((7,7-difluoro-9-isopropyl-5-methyl-6-oxo-6,7,8,9-tetrahydro-5H-pyrimido[4,5-b][1,4]diazepin-2-yl)amino)-N-(7-((1-(4-(2,6-dioxopiperidin-3-yl)-2-methylphenyl)piperidin-4-yl)methyl)-7-azaspiro[3.5]nonan-2-yl)-3-methoxybenzamide]: the “Activity: ratio” value at PLK1 is listed as “++ (++ <0.6)”. In addition, the IC50 in the data set with H526 cell line is less than 0.03 µM. Besides, in data set [1], the IC50 at 5 days is greater than 10 µM.
Take `COc1cc(C(=O)NC2CC3(CCN(CC4CCN(c5ccc(C6CCC(=O)NC6=O)cc5OC)CC4)CC3)C2)ccc1Nc1ncc2c(n1)N(C(C)C)CC(F)(F)C(=O)N2C` (stereo not shown) [Compound 36, 4-((7,7-difluoro-9-isopropyl-5-methyl-6-oxo-6,7,8,9-tetrahydro-5H-pyrimido[4,5-b][1,4]diazepin-2-yl)amino)-N-(7-((1-(4-(2,6-dioxopiperidin-3-yl)-2-methoxyphenyl)piperidin-4-yl)methyl)-7-azaspiro[3.5]nonan-2-yl)-3-methoxybenzamide]: the “Activity: ratio” value on PLK1 was “++ (++ <0.6)”. Further, the IC50 in the data set with H526 cell line is less than 0.03 µM. This compound also returned an IC50 at 5 days in data set [1] greater than 10 µM.
For the compound `COc1cc(C(=O)NC2CCN(C3CC4(CCN(c5ccc(C6CCC(=O)NC6=O)cc5F)CC4)C3)CC2)ccc1Nc1ncc2c(n1)N(C(C)C)CC(F)(F)C(=O)N2C` (stereo not shown) [Compound 39, 4-((7,7-difluoro-9-isopropyl-5-methyl-6-oxo-6,7,8,9-tetrahydro-5H-pyrimido[4,5-b][1,4]diazepin-2-yl)amino)-N-(1-(7-(4-(2,6-dioxopiperidin-3-yl)-2-fluorophenyl)-7-azaspiro[3.5]nonan-2-yl)piperidin-4-yl)-3-methoxybenzamide], the “Activity: ratio” value on PLK1 is on record as “++ (++ <0.6)”. The IC50 with H526 cell line was less than 0.05 µM; in the data set on MRC-5 cell line, 5800 nM.
For `COc1cc(C(=O)NC2CC3(CCN(CC4CCN(c5c(F)cc(C6CCC(=O)NC6=O)cc5F)CC4)CC3)C2)ccc1Nc1ncc2c(n1)N(C(C)C)CC(F)(F)C(=O)N2C` (stereo not shown) [Compound 15, 4-((7,7-difluoro-9-isopropyl-5-methyl-6-oxo-6,7,8,9-tetrahydro-5H-pyrimido[4,5-b][1,4]diazepin-2-yl)amino)-N-(7-((1-(4-(2,6-dioxopiperidin-3-yl)-2,6-difluorophenyl)piperidin-4-yl)methyl)-7-azaspiro[3.5]nonan-2-yl)-3-methoxybenzamide], the “Activity: ratio” value on PLK1 was “++ (++ <0.6)”. Moreover, the values for the IC50 in the data set with H526 cell line and with MRC-5 cell line were less than 0.03 µM and 17700 nM, respectively.
In the case of `COc1cc(C(=O)NC2CC3(CCN(CC4(O)CCN(c5ccc(C6CCC(=O)NC6=O)cc5F)CC4)CC3)C2)ccc1Nc1ncc2c(n1)N(C(C)C)CC(F)(F)C(=O)N2C` (stereo not shown) [Compound 33, 4-((7,7-difluoro-9-isopropyl-5-methyl-6-oxo-6,7,8,9-tetrahydro-5H-pyrimido[4,5-b][1,4]diazepin-2-yl)amino)-N-(7-((1-(4-(2,6-dioxopiperidin-3-yl)-2-fluorophenyl)-4-hydroxypiperidin-4-yl)methyl)-7-azaspiro[3.5]nonan-2-yl)-3-methoxybenzamide], at PLK1, the “Activity: ratio” value is reported as “++ (++ <0.6)”. In the data set with H526 cell line, this compound displayed an IC50 of less than 0.03 µM. The IC50 at 5 days in data set [1] is greater than 10 µM.

(Values after US11939334B2, “Substituted pyrimido[4,5-b][1,4]diazepines as PLK1 degradation inducers” (UPPTHERA, INC., priority 2021, dated 2024).)
